What all share (type): cell-based
The subject of assay [1] is HCT116p53 wt (human colorectal cancer, wild-type). Put plainly: cytotoxic MTS test, HCT116. Particulars: HCT-116, HCT116 cells. The source says: (§1) To evaluate the antitumor activity of newly prepared compounds for in vitro conditions, we used cytotoxic MTS test (Nosková V. et al., Neoplasma 2002, 49, 418-425) on cell lines derived from normal tissues or tumors. Specifically, cell lines K562 (human acute myeloid leukemia); K562-Tax (human acute myeloid leukemia, paclitaxel resistant subline, overexpress multiple drug resistant protein PgP); CEM (T-lymfoblastic leukemia); CEM-DNR-bulk (T-lymfoblastic leukemia, doxorubicin resistant); A549 (human lung adenocarcinoma); HCT116p53 wt (human colorectal cancer, wild-type); HCT116p53−/−(human colorectal cancer, mutant p53) a U2OS (human bone osteosarcoma) were used. Express characteristics, susceptibility profiles of classic antitumor drugs as well as methodology of cytotoxic MTS test have been repeatedly published (Denizot, F.; Lang, R., J. Immunol. Meth. 1986, 89, 271-277; Noskova, V., see above; Šarek J. et al., J, Med. Chem., 2003, 46, 5402-5415).

For assay [2], the system named is CEM (T-lymfoblastic leukemia). Put plainly: cytotoxic MTS test, CEM. Particulars: Homo sapiens, CCRF-CEM; CEM cells.
Excerpt: as §1
Background: Tetrazolium assays rely on reduction of a dye to a coloured formazan, in cell work by metabolically active cells.

The next assay relates to HeLa. Briefly: cytotoxic MTS test, HeLa. Particulars: Homo sapiens; HeLa cells.
The subject of assay [3] is MRC-5 (normal human fibroblasts). Briefly: cytotoxic MTS test, MRC-5. As to conditions: MRC5, MRC-5 cells.
Assay [4] has as its system BJ (normal human fibroblasts). Put plainly: cytotoxic MTS test, BJ. As to conditions: BJ cells.
Assay [5] deals with HCT116p53−/− (human colorectal cancer, mutant p53). Briefly: cytotoxic MTS test, HCT116p53. Particulars: HCT116p53 cells.
Excerpt: as §1

Assay [6] deals with U2OS (human bone osteosarcoma). Put plainly: cytotoxic MTS test, U2OS. Particulars: U2OS cells.
Excerpt: as §1

The test system of the next assay is HL 60. Briefly: cytotoxic MTS test, HL 60. Particulars: Homo sapiens; HL 60 cells.
Assay [7] relates to K562 (human acute myeloid leukemia). Briefly: cytotoxic MTS test, K562. Particulars: K562 cells.
Excerpt: as §1

Assay [8] relates to K562-Tax (human acute myeloid leukemia, paclitaxel resistant subline). Briefly: cytotoxic MTS test, K562-TAX. As to conditions: K562-TAX cells.
Excerpt: as §1

Another assay relates to CCRF-CEM. Put plainly: cytotoxic MTS test, CCRF-CEM. Particulars: Homo sapiens; CCRF-CEM cells.
Excerpt: as §1

For the next assay, the system named is Hep G2. Put plainly: cytotoxic MTS test, Hep G2. Particulars: Homo sapiens, HepG2; Hep G2 cells.
Assay [9] deals with A549 (human lung adenocarcinoma). Briefly: cytotoxic MTS test, A549. Particulars: A549 cells.
Excerpt: as §1

Assay [10] deals with CEM-DNR-bulk (T-lymfoblastic leukemia, doxorubicin resistant). Briefly: cytotoxic MTS test, CEM-DNR. Particulars: Homo sapiens; CEM-DNR cells.
Excerpt: as §1

This is an account of results in patent US11299510B2, “Substituted pyridopyrrolopyrimidine ribonucleosides for therapeutic uses” (USTAV ORGANICKE CHEMIE A BIOCHEMIE AV CR, V.V.I., priority 2018, dated 2022).

By IC50 is commonly meant the concentration that inhibits the measured activity by half. A higher IC50 goes with weaker potency.

As for `Nc1ncnc2c1c1ccncc1n2[C@@H]1O[C@H](CO)[C@@H](O)[C@H]1O` [Compound 2c, 4-amino-9-(β-D-ribofuranosyl)-9H-pyrido[4′,3′:4,5]pyrrolo[2,3-d]pyrimidine], the IC50 in [1] is 0.2 to 0.9 µM; in [2], 0.2 to 0.9 µM; in the assay with HeLa, 0.9 to 10 µM; in [3] it was more than 50 µM; in [4], 0.9 to 10 µM; in assay [5], 0.2 to 0.9 µM. In addition, the IC50 lay in the range of 0.2 to 0.9 µM in [6]; 0.2 to 0.9 µM with HL 60; 0.2 to 0.9 µM in assay [7]; 0.9 to 10 µM in assay [8]; 0.2 to 0.9 µM in the assay on CCRF-CEM; 0.2 to 0.9 µM with Hep G2. Moreover, the IC50 in [9] and in assay [10] was 0.9 to 10 µM throughout.

Regarding `Cc1ncnc2c1c1ccncc1n2[C@@H]1O[C@H](CO)[C@@H](O)[C@H]1O` [Compound 2d, 4-methyl-9-(β-D-ribofuranosyl)-9H-pyrido[4′,3′:4,5]pyrrolo[2,3-d]pyrimidine], the IC50 in [1] is 0.9 to 10 µM; in assay [2], 0.2 to 0.9 µM; in the assay with HeLa, 0.9 to 10 µM; in assay [3], more than 50 µM; in assay [4], 0.9 to 10 µM; in assay [5], 0.9 to 10 µM. For the same compound, the IC50 is 0.9 to 10 µM in assay [6]; 0.2 to 0.9 µM in the assay with HL 60; 0.9 to 10 µM in assay [7]; 0.9 to 10 µM in assay [8]; 0.2 to 0.9 µM in the assay with CCRF-CEM; 0.9 to 10 µM in the assay on Hep G2. The IC50 in [9] was more than 50 µM; in assay [10], 0.9 to 10 µM.

Consider `CN(C)c1ncnc2c1c1ccncc1n2[C@@H]1O[C@H](CO)[C@@H](O)[C@H]1O` [Compound 2e, 4-(dimethylamino)-9-(β-D-ribofuranosyl)-9H-pyrido[4′,3′:4,5]pyrrolo[2,3-d]pyrimidine], for which the half-maximal inhibitory concentration (IC50) (in assay [1]; in [2]; with HeLa; in assay [3]; in assay [4]; in [5]) was more than 50 µM in each case. Moreover, the IC50 (in assay [6]; with HL 60; in assay [7]; in assay [8]; with CCRF-CEM; in the assay on Hep G2) was more than 50 µM in each case. Moreover, the IC50 in [9] and in assay [10] was more than 50 µM throughout.

`OC[C@H]1O[C@@H](n2c3cnccc3c3c(-c4ccco4)ncnc32)[C@H](O)[C@@H]1O` [Compound 2f, 4-(furan-2-yl)-9-(β-D-ribofuranosyl)-9H-pyrido[4′,3′:4,5]pyrrolo[2,3-d]pyrimidine]: the IC50 (in [1]; in [2]; in the assay with HeLa; in assay [3]; in [4]; in [5]) was more than 50 µM in each case. Further, the IC50 (in assay [6]; in the assay on HL 60; in [7]; in [8]; in the assay with CCRF-CEM; in the assay with Hep G2) was more than 50 µM each time. The IC50 in assay [9] and in [10] was more than 50 µM in each case.

Take `OC[C@H]1O[C@@H](n2c3cnccc3c3c(-c4ccoc4)ncnc32)[C@H](O)[C@@H]1O` [Compound 2g, 4-(furan-3-yl)-9-(β-D-ribofuranosyl)-9H-pyrido[4′,3′:4,5]pyrrolo[2,3-d]pyrimidine]: the IC50 (in assay [1]; in [2]; in the assay on HeLa; in assay [3]; in assay [4]; in assay [5]) was more than 50 µM throughout. The IC50 (in assay [6]; with HL 60; in [7]; in [8]; in the assay with CCRF-CEM; with Hep G2) was more than 50 µM each time. In addition, the IC50 in assay [9] and in assay [10] was more than 50 µM each time.

For the compound `OC[C@H]1O[C@@H](n2c3cnccc3c3c(-c4ccsc4)ncnc32)[C@H](O)[C@@H]1O` [Compound 2h, 4-(thiophen-3-yl)-9-(β-D-ribofuranosyl)-9H-pyrido[4′,3′:4,5]pyrrolo[2,3-d]pyrimidine], the IC50 (in assay [1]; in [2]; in the assay on HeLa; in assay [3]; in assay [4]; in assay [5]) was more than 50 µM in each case. The IC50 (in [6]; with HL 60; in assay [7]; in assay [8]; in the assay with CCRF-CEM; in the assay on Hep G2) was more than 50 µM in each case. The IC50 in assay [9] and in [10] was more than 50 µM throughout.

Consider `OC[C@H]1O[C@@H](n2c3cnccc3c3c(-c4cc5ccccc5o4)ncnc32)[C@H](O)[C@@H]1O` [Compound 2i, 4-(benzofuran-2-yl)-9-(β-D-ribofuranosyl)-9H-pyrido[4′,3′:4,5]pyrrolo[2,3-d]pyrimidine], for which the IC50 in assay [1] is 0.9 to 10 µM; in assay [2] it was more than 50 µM; in the assay on HeLa, more than 50 µM; in assay [3], 10 to 25 µM; in assay [4], 25 to 50 µM; in assay [5] it was 10 to 25 µM. In addition, the IC50 in assay [6] is 10 to 25 µM; in the assay on HL 60 it was more than 50 µM; in [7] it was 10 to 25 µM; in [8], 10 to 25 µM; in the assay on CCRF-CEM, 0.9 to 10 µM; in the assay on Hep G2, more than 50 µM. For the same compound, the IC50 in assay [9] and in assay [10] was 10 to 25 µM throughout.
